Laboratory results: patent publication US12681018B2, “Photoactive fluorescent compounds and use thereof for labeling of proteins” (EIKON THERAPEUTICS, INC., priority 2021, dated 2026)
Read-outs that look alike come from different tables or passages of the source.

Molecular target: T1, Estrogen Receptor-HaloTag (ER-Halo) fusion (Rhodococcus rhodochrous, UniProt P0A3G2, A155T/A167V/A172T/A224E/C128F/C176G/D78G/E160K/E257K/H272N/K175M/K195N/L47V/L88M/N227D/P291S/S58T/T264A/Y273L/Y87F)
T1 construct: expressed in transfected cells; host or cells: U2OS
Assay type: cell-based
Conditions: tracks in WT U2OS cells, ratio with PA-JF549 in the numerator, 100 nM, 1 hr
Experimental: Using the methods described in Tables 4a and 4b above, labelling specificity of the compound of Examples 1-24 was measured and compared to PA-JF549. U2OS cells wild type or expressing ER-HaloTag fusion were incubated with PA-JF549 or Examples 1-24 for 1 hr. […] Labeling specificity, as measured by the fold reduction in nonspecific labeling of WT cells, was calculated by number of tracks measured in WT cells for Examples 1-24 compared to the number of tracks in WT cells for PA-JF549, expressed as the ratio with PA-JF549 in the numerator.

T1 sequence (P03372 whole entry, the tested form may be a part): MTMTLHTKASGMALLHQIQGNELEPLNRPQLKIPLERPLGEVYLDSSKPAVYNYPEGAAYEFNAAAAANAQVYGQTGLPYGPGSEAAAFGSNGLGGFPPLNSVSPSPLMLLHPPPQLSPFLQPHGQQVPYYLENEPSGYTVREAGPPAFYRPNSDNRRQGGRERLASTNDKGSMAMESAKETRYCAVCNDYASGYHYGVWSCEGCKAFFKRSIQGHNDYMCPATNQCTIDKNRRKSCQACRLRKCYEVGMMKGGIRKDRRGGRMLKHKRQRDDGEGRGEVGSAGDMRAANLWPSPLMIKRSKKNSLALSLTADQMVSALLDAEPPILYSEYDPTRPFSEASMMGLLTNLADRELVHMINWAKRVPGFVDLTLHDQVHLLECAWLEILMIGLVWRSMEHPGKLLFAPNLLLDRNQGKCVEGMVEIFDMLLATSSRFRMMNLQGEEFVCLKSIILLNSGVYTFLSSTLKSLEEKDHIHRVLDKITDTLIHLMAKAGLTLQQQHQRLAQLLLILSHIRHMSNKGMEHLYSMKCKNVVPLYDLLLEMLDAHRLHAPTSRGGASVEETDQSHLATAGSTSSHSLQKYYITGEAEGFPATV
T1 sequence (P0A3G2 other isoform, or with tags, fused parts or gaps with the stated changes): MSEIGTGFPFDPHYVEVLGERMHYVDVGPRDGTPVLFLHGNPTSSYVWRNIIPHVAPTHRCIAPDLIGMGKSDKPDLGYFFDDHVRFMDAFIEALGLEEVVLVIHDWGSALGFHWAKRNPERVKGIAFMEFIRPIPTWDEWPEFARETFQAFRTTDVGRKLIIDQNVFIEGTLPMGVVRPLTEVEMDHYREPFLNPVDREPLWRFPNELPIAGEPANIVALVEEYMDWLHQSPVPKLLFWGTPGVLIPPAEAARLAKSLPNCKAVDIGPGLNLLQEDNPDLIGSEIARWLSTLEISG

| Compound | Fold reduction in nonspecific labeling (Table 4b) | Fold reduction in nonspecific labeling (Table 4a) |
| --- | --- | --- |
| 1,1′-(6-((2-(2-((6-chlorohexyl)oxy)ethoxy)ethyl)carbamoyl)-2-diazo-3-oxo-2,3-dihydrospiro[indene-1,9′-xanthene]-3′,6′-diyl)bis(azetidine-3-carboxamide [Example 20] | >10 |  |
| 3′,6′-di(azetidin-1-yl)-6-((2-(2-((6-chlorohexyl)oxy)ethoxy)ethyl)amino)-3H-spiro[isobenzofuran-1,9′-xanthen]-3-one [Example 21] | 5-10 |  |
| CN(C)C(=O)C1CN(c2ccc3c(c2)Oc2cc(N4CC(C(=O)N(C)C)C4)ccc2C32C(=[N+]=[N-])C(=O)c3ccc(C(=O)NCc4ccc(COc5nc(N)nc6nc[nH]c56)cc4)cc32)C1 [Example 5] | >10 | >10 |
| COC(=O)[C@H]1CCN1c1ccc2c(c1)Oc1cc(N3CC[C@@H]3C(=O)OC)ccc1C21C(=[N+]=[N-])C(=O)c2ccc(C(=O)NCCOCCOCCCCCCCl)cc21 [Example 6] | 1-5 | 1-5 |
| [N-]=[N+]=C1C(=O)c2ccc(C(=O)NCCOCCOCCCCCCCl)cc2C12c1ccc(N3CC(O)C3)cc1Oc1cc(N3CC(O)C3)ccc12 [Example 7, N-(2-(2-((6-chlorohexyl)oxy)ethoxy)ethyl)-2-diazo-3′,6′-bis(3-hydroxyazetidin-1-yl)-3-oxo-2,3-dihydrospiro[indene-1,9′-xanthene]-6-carboxamide] | >10 | >10 |
| CN(CCOCCOCCCCCCCl)C(=O)c1ccc2c(c1)C1(C(=[N+]=[N-])C2=O)c2ccc(N3CCC3)cc2Oc2cc(N3CCC3)ccc21 [Example 8, 3′,6′-di(azetidin-1-yl)-N-(2-(2-((6-chlorohexyl)oxy)ethoxy)ethyl)-2-diazo-N-methyl-3-oxo-2,3-dihydrospiro[indene-1,9′-xanthene]-6-carboxamide] | 5-10 | 5-10 |
| [N-]=[N+]=C1C(=O)c2ccc(C(=O)NCCOCCOCCCCCCCl)cc2C12c1ccc(N3CC(C(=O)N4CCOCC4)C3)cc1Oc1cc(N3CC(C(=O)N4CCOCC4)C3)ccc12 [Example 9, N-(2-(2-((6-chlorohexyl)oxy)ethoxy)ethyl)-2-diazo-3′,6′-bis(3-(morpholine-4-carbonyl)azetidin-1-yl)-3-oxo-2,3-dihydrospiro[indene-1,9′-xanthene]-6-carboxamide] | >10 | >10 |
| [N-]=[N+]=C1C(=O)c2ccc(C(=O)NCCOCCOCCCCCCCl)cc2C12c1ccc(N3CC(C(=O)N4CCCC4)C3)cc1Oc1cc(N3CC(C(=O)N4CCCC4)C3)ccc12 [Example 10, N-(2-(2-((6-chlorohexyl)oxy)ethoxy)ethyl)-2-diazo-3-oxo-3′,6′-bis(3-(pyrrolidine-1-carbonyl)azetidin-1-yl)-2,3-dihydrospiro[indene-1,9′-xanthene]-6-carboxamide] | 5-10 | 5-10 |
| CN1CCN(C(=O)C2CN(c3ccc4c(c3)Oc3cc(N5CC(C(=O)N6CCN(C)CC6)C5)ccc3C43C(=[N+]=[N-])C(=O)c4ccc(C(=O)NCCOCCOCCCCCCCl)cc43)C2)CC1 [Example 11, N-(2-(2-((6-chlorohexyl)oxy)ethoxy)ethyl)-2-diazo-3′,6′-bis(3-(4-methylpiperazine-1-carbonyl)azetidin-1-yl)-3-oxo-2,3-dihydrospiro[indene-1,9′-xanthene]-6-carboxamide] | 1-5 | 1-5 |
| CNC(=O)C1CN(c2ccc3c(c2)Oc2cc(N4CC(C(=O)NC)C4)ccc2C32C(=[N+]=[N-])C(=O)c3ccc(C(=O)NCCOCCOCCCCCCCl)cc32)C1 [Example 12, 1,1′-(6-((2-(2-((6-chlorohexyl)oxy)ethoxy)ethyl)carbamoyl)-2-diazo-3-oxo-2,3-dihydrospiro[indene-1,9′-xanthene]-3′,6′-diyl)bis(N-methylazetidine-3-carboxamide)] | >10 | >10 |
| CN(C)C1CN(c2ccc3c(c2)Oc2cc(N4CC(N(C)C)C4)ccc2C32C(=[N+]=[N-])C(=O)c3ccc(C(=O)NCCOCCOCCCCCCCl)cc32)C1 [Example 13, N-(2-(2-((6-chlorohexyl)oxy)ethoxy)ethyl)-2-diazo-3′,6′-bis(3-(dimethylamino)azetidin-1-yl)-3-oxo-2,3-dihydrospiro[indene-1,9′-xanthene]-6-carboxamide] | 5-10 | 5-10 |
| CN(C)C(=O)[C@@H]1CCN1c1ccc2c(c1)Oc1cc(N3CC[C@H]3C(=O)N(C)C)ccc1C21C(=[N+]=[N-])C(=O)c2ccc(C(=O)NCCOCCOCCCCCCCl)cc21 [Example 14, (2S,2'S)-1,1′-(6-((2-(2-((6-chlorohexyl)oxy)ethoxy)ethyl)carbamoyl)-2-diazo-3-oxo-2,3-dihydrospiro[indene-1,9′-xanthene]-3′,6′-diyl)bis(N,N-dimethylazetidine-2-carboxamide)] | >10 | >10 |
| [N-]=[N+]=C1C(=O)c2ccc(C(=O)NCCOCCOCCCCCCCl)cc2C12c1ccc(N3CC[C@@H]3CO)cc1Oc1cc(N3CC[C@@H]3CO)ccc12 [Example 15, N-(2-(2-((6-chlorohexyl)oxy)ethoxy)ethyl)-2-diazo-3′,6′-bis((R)-2-(hydroxymethyl)azetidin-1-yl)-3-oxo-2,3-dihydrospiro[indene-1,9′-xanthene]-6-carboxamide] | 5-10 | 5-10 |
| CN(C)C(=O)[C@H]1CCN(c2ccc3c(c2)Oc2cc(N4CC[C@H](C(=O)N(C)C)C4)ccc2C32C(=[N+]=[N-])C(=O)c3ccc(C(=O)NCCOCCOCCCCCCCl)cc32)C1 [Example 16, (3S,3′S)-1,1′-(6-((2-(2-((6-chlorohexyl)oxy)ethoxy)ethyl)carbamoyl)-2-diazo-3-oxo-2,3-dihydrospiro[indene-1,9′-xanthene]-3′,6′-diyl)bis(N,N-dimethylpyrrolidine-3-carboxamide)] | 5-10 | 5-10 |
| [N-]=[N+]=C1C(=O)c2ccc(C(=O)NCCOCCOCCCCCCCl)cc2C12c1ccc(N3C4COCC3C4)cc1Oc1cc(N3C4COCC3C4)ccc12 (stereo not shown) [Example 17, 3′,6′-di(3-oxa-6-azabicyclo[3.1.1]heptan-6-yl)-N-(2-(2-((6-chlorohexyl)oxy)ethoxy)ethyl)-2-diazo-3-oxo-2,3-dihydrospiro[indene-1,9′-xanthene]-6-carboxamide] | 1-5 | 1-5 |
| CN1CC2CC(C1)N2c1ccc2c(c1)Oc1cc(N3C4CC3CN(C)C4)ccc1C21C(=[N+]=[N-])C(=O)c2ccc(C(=O)NCCOCCOCCCCCCCl)cc21 (stereo not shown) [Example 18, N-(2-(2-((6-chlorohexyl)oxy)ethoxy)ethyl)-2-diazo-3′,6′-bis(3-methyl-3,6-diazabicyclo[3.1.1]heptan-6-yl)-3-oxo-2,3-dihydrospiro[indene-1,9′-xanthene]-6-carboxamide] | >10 | >10 |
| CN(C)C(=O)C1CN(c2ccc3c(c2)[Si](C)(C)c2cc(N4CC(C(=O)N(C)C)C4)ccc2C32C(=[N+]=[N-])C(=O)c3ccc(C(=O)NCCOCCOCCCCCCCl)cc32)C1 [Example 19] | >10 |  |
| [N-]=[N+]=C1C(=O)c2ccc(NC(=O)CCOCCOCCCCCCCl)cc2C12c1ccc(N3CCC3)cc1Oc1cc(N3CCC3)ccc12 [Example 22, 3-(2-((6-chlorohexyl)oxy)ethoxy)-N-(3′,6′-di(azetidin-1-yl)-2-diazo-3-oxo-2,3-dihydrospiro[indene-1,9′-xanthen]-6-yl)propanamide] | 5-10 |  |
| [N-]=[N+]=C1C(=O)c2ccc(CCCCOCCOCCCCCCCl)cc2C12c1ccc(N3CCC3)cc1Oc1cc(N3CCC3)ccc12 [Example 24, 3′,6′-di(azetidin-1-yl)-6-(4-(2-((6-chlorohexyl)oxy)ethoxy)butyl)-2-diazospiro[indene-1,9′-xanthen]-3(2H)-one] | 1-5 |  |
| (E)-3′,6′-di(azetidin-1-yl)-6-(4-(2-((6-chlorohexyl)oxy)ethoxy)but-1-en-1-yl)-2-diazospiro[indene-1,9′-xanthen]-3(2H)-one and (Z)-3′,6′-di(azetidin-1-yl)-6-(4-(2-((6-chlorohexyl)oxy)ethoxy)but-1-en-1-yl)-2-diazospiro[indene-1,9′-xanthen]-3(2H)-one [Example 23] | >10 |  |
